In general, IC50 refers to the midpoint of a concentration-inhibition curve. The low end stands for greater potency in that assay, the high end for weaker potency in that assay.

Molecules are shown by their SMILES. Structures can show the parent of a compound that is named as a salt.

This note sets out measurements from patent publication US20070275960A1, “Phenyl and pyridyl compounds for inflammation and immune-related uses” (Synta Pharmaceuticals Corp., priority 2006, published 2007).

One test concerns IL-2 production. Kind of test: Inhibition of IL-2 production in PHA-activated Jurkat cells (ELISA). The test is classed as cell-based. As to conditions: Homo sapiens, Jurkat, 20 h, PHA 2.5 μg/mL, 20 hours at 37° C., IL-2 by ELISA. How it is done: Jurkat cells were placed in a 96 well plate (0.5 million cells per well in 1% FBS medium) then a test compound of this invention was added at different concentrations. After 10 minutes, the cells were activated with PHA (final concentration 2.5 μg/mL) and incubated for 20 hours at 37° C. under CO2. The final volume was 200 μL. Following incubation, the cells were centrifuged and the supernatants collected and stored at −70° C. prior to assaying for IL-2 production. A commercial ELISA kit (IL-2 Eli-pair, Diaclone Research, Besancon, France) was used to detect production of IL-2, from which dose response curves were obtained. The IC50 value was calculated as the concentration at which 50% of maximum IL-2 production after stimulation was inhibited versus a non-stimulation control.
For the compound `COC(=O)c1cc(-c2ccc(NC(=O)c3c(F)cccc3F)cc2)c(C)s1` [Compound 1, 4-[4-(2,6-Difluoro-benzoylamino)-phenyl]-5-methyl-thiophene-2-carboxylic acid methyl ester], half-maximal inhibition (IC50) was put at 1 nM.

With `COC(=O)c1cc(-c2ccc(NC(=O)c3ccncc3C)cc2)c(C)s1` [Compound 2, 5-Methyl-4-{4-[(3-methyl-pyridine-4-carbonyl)-amino]-phenyl}-thiophene-2-carboxylic acid methyl ester], the 50% inhibitory concentration (IC50) was found to be 3 nM.

The compound `Cc1sc(-c2cnco2)cc1-c1ccc(NC(=O)c2c(F)cccc2F)cc1` [Compound 3, 2,6-Difluoro-N-[4-(2-methyl-5-oxazol-5-yl-thiophen-3-yl)-phenyl]-benzamide] showed an IC50 of 3 nM.

Turning to `COC(=O)c1cc(C)c(-c2ccc(NC(=O)c3c(F)cccc3F)cc2)s1` [Compound 4, 5-[4-(2,6-Difluoro-benzoylamino)-phenyl]-4-methyl-thiophene-2-carboxylic acid methyl ester], 1 nM corresponded to half-maximal inhibition (IC50).

Regarding `COC(=O)c1cc(-c2ccc(NC(=O)c3c(F)cccc3F)cc2)c(C)o1` [Compound 8, 4-[4-(2,6-Difluoro-benzoylamino)-phenyl]-5-methyl-furan-2-carboxylic acid methyl ester], the IC50 was found to be 7 nM.

As for `Cc1nc(N2CCOCC2)sc1-c1ccc(NC(=O)c2c(F)cccc2F)cc1` [Compound 9, 2,6-Difluoro-N-[4-(4-methyl-2-morpholin-4-yl-thiazol-5-yl)-phenyl]-benzamide], half-maximal inhibition (IC50) was put at 106 nM.

Consider `Cc1cnccc1C(=O)Nc1ccc(-c2sc(N3CCOCC3)nc2C)cc1` [Compound 10, 3-Methyl-N-[4-(4-methyl-2-morpholin-4-yl-thiazol-5-yl)-phenyl]-isonicotinamide], for which the concentration for half-maximal inhibition (IC50) is 237 nM.

Turning to `Cc1cc(-c2ncco2)sc1-c1ccc(NC(=O)c2c(F)cccc2F)cc1` [Compound 39, 2,6-Difluoro-N-[4-(3-methyl-5-oxazol-2-yl-thiophen-2-yl)-phenyl]-benzamide], the IC50 is 1 nM.

Consider `Cc1cc(NC(=O)c2c(F)cccc2F)ccc1-c1nc(C(F)(F)F)cs1` [Compound 91, 2,6-Difluoro-N-[3-methyl-4-(4-trifluoromethyl-thiazole-2-yl)-phenyl]-benzamide], for which the IC50 is above 1000 nM.

Consider `Cc1cc(-c2ncco2)sc1-c1ccc(NC(=O)c2snnc2C)cc1` [Compound 92, 4-Methyl-[1,2,3]thiadiazole-5-carboxylic acid [4-(3-methyl-5-oxazol-2-yl-thiophen-2-yl)-phenyl]-amide], for which the IC50 was 4 nM.

Take `Cc1cnccc1C(=O)Nc1ccc(-c2sc(-c3ncco3)cc2C)cc1` [Compound 93, 3-Methyl-N-[4-(3-methyl-5-oxazol-2-yl-thiophen-2-yl)-phenyl]-isonicotinamide]: the IC50 came out at 3 nM.

On to `Cc1cnccc1C(=O)Nc1ccc(-c2sc(-c3ccno3)cc2C)cc1` [Compound 94, 3-Methyl-N-[4-(3-methyl-5-isoxazol-5-yl-thiophen-2-yl)-phenyl]-isonicotinamide], for which half-maximal inhibition (IC50) was put at 5.2 nM.

Compound `Cc1cnccc1C(=O)Nc1ccc(-c2sc(-c3cccnc3)cc2C)cc1` [Compound 96, 3-Methyl-N-[4-(3-methyl-5-pyridin-3-yl-thiophen-2-yl)-phenyl]-isonicotinamide] returned an IC50 of 2.1 nM.

As for `Cc1cnccc1C(=O)Nc1ccc(-c2sc(-c3cncnc3)cc2C)cc1` [Compound 97, 3-Methyl-N-[4-(3-methyl-5-pyrimidin-5-yl-thiophen-2-yl)-phenyl]-isonicotinamide], the IC50 was 7.2 nM.

Compound `Cc1cc(-c2cncnc2)sc1-c1ccc(NC(=O)c2snnc2C)cc1` [Compound 98, 4-Methyl-[1,2,3]thiadiazole-5-carboxylic acid [4-(3-methyl-5-pyrimidin-5-yl-thiophen-2-yl)-phenyl]-amide] had an IC50 of 9.3 nM.

For the compound `Cc1cc(-c2ccncc2)sc1-c1ccc(NC(=O)c2snnc2C)cc1` [Compound 99, 4-Methyl-[1,2,3]thiadiazole-5-carboxylic acid [4-(3-methyl-5-pyridin-4-yl-thiophen-2-yl)-phenyl]-amide, hydrochloride], the IC50 came out at 5.2 nM.

In turn, `Cc1cnccc1C(=O)Nc1ccc(-c2sc(-c3ccncc3)cc2C)cc1` [Compound 101] displayed an IC50 of 4 nM.

In the case of `Cc1cc(-c2ccno2)sc1-c1ccc(NC(=O)c2cnns2)cc1` [Compound 102, [1,2,3]thiadiazole-5-carboxylic acid [4-(3-methyl-5-isoxazol-5-yl-thiophen-2-yl)-phenyl]-amide], half-maximal inhibition (IC50) required 22 nM.

For the compound `Cc1cc(-c2ccno2)sc1-c1ccc(NC(=O)c2cccn2C)cc1` [Compound 103, 1-Methyl-1H-pyrrol-2-carboxylic acid [4-(3-methyl-5-isoxazol-5-yl-thiophen-2-yl)-phenyl]-amide], the IC50 turned out to be 3 nM.

The compound `Cc1cc(-c2ccno2)sc1-c1ccc(NC(=O)c2ccnn2C)cc1` [Compound 104, 1-Methyl-1H-pyrazol-5-carboxylic acid [4-(3-methyl-5-isoxazol-5-yl-thiophen-2-yl)-phenyl]-amide] yielded an IC50 above 1000 nM.

In turn, `Cc1cc(-c2ccno2)sc1-c1ccc(NC(=O)c2cnsc2)cc1` [Compound 105, Isothiazol-4-carboxylic acid [4-(3-methyl-5-isoxazol-5-yl-thiophen-2-yl)-phenyl]-amide] registered an IC50 of 7.6 nM.

For the compound `Cc1cc(-c2ccno2)sc1-c1ccc(NC(=O)c2csnn2)cc1` [Compound 106, [1,2,3]thiadiazol-4-carboxylic acid [4-(3-methyl-5-isoxazol-5-yl-thiophen-2-yl)-phenyl]-amide], inhibition was half-maximal at 83.8 nM (IC50).

Consider `Cc1cncnc1C(=O)Nc1ccc(-c2sc(-c3ccno3)cc2C)cc1` [Compound 107, 5-Methyl-pyrimidine-4-carboxylic acid [4-(3-methyl-5-isoxazol-5-yl-thiophen-2-yl)-phenyl]-amide], for which the midpoint of inhibition, the IC50, lay at 2.8 nM.

The compound `Cc1cc(-c2cnco2)sc1-c1ccc(NC(=O)c2scnc2Cl)cc1` [Compound 110, 4-Chloro-thiazol-5-carboxylic acid [4-(3-methyl-5-oxazol-5-yl-thiophen-2-yl)-phenyl]-amide] displayed an IC50 of 7.5 nM.

`Cc1cnccc1C(=O)Nc1ccc(-c2sc(-c3nccs3)cc2C)cc1` [Compound 111, 3-Methyl-N-[4-(3-methyl-5-thiazol-2-yl-thiophen-2-yl)-phenyl]-isonicotinamide]: the IC50 came to 8.7 nM.

The test is the same for the next values; noted with them: PHA 2.5 μg/mL, 20 hours at 37° C., IL-2 by ELISA.
In the case of `Cc1cnccc1C(=O)Nc1ccc(-c2sc(-c3ncco3)cc2C)cc1` [Compound 109, 3-Methyl-N-[4-(3-methyl-5-oxazol-2-yl-thiophen-2-yl)-phenyl]-isonicotinamide], the midpoint of inhibition, the IC50, lay at 2.7 nM.

Still in this test, the particulars now being: PHA 2.5 μg/mL, 20 hours at 37° C., IL-2 by ELISA, hydrochloride.
`Cc1cnccc1C(=O)Nc1ccc(-c2sc(-c3ccno3)cc2C)cc1` [Compound 95, 3-Methyl-N-[4-(3-methyl-5-isoxazol-5-yl-thiophen-2-yl)-phenyl]-isonicotinamide, hydrochloride]: the half-inhibitory concentration (IC50) is 4.4 nM.

`Cc1cc(-c2ccccn2)sc1-c1ccc(NC(=O)c2snnc2C)cc1` [Compound 100, 4-Methyl-[1,2,3]thiadiazole-5-carboxylic acid [4-(3-methyl-5-pyridin-2-yl-thiophen-2-yl)-phenyl]-amide, hydrochloride] gave an IC50 of 10.5 nM.
